According to patent US8680094B2, “1, 4-benzoxazine compounds and derivatives thereof as therapeutic drugs for the treatment of neurodegenerative conditions” (Board of Regents, The University of Texas System, priority 2008, dated 2014):
Several values for one entry are separate records, joined by “and”; a condition that tells them apart may be missing. Identical values can stand only once.

Tested on: cerebellar granule neurons
Assay: LK-induced death of cultured cerebellar granule neurons, viability by DAPI staining
Assay type: cell-based, rat
Conditions: for neuroprotection against LK-induced neuronal death, in words: overall over 1, 5 and 25 μM; for protection at doses lower than 1 μM compared with 1 μM: 0.5, 0.25 and 0.1 μM
Procedure: Culturing and treatments of cerebellar granule neurons: Granule neuron cultures were obtained from dissociated cerebella of 6-7 day old Wistar rats as described previously (D'Mello et al., 1993). Cells were plated in Basal Eagle's Medium (BME) supplemented with 10% fetal calf serum (FCS), 25 mM KCl, 2 mM glutamine (Invitrogen), and 100 μg/ml gentamycin in poly-L-lysine coated 24-well dishes at a density 1×10^6 cells/well. Cytosine arabinofuranoside (10 μM) was added to the culture medium 18-22 h after plating to prevent replication of nonneuronal cells. Previous immunocytochemical analyses by our lab and other investigators have shown that these cultures have high purity containing over 95% granule neurons (Thangnipon et al., 2003; Kingsbury et al., 2005).
The neuronal cultures were maintained for 7-8 days prior to treatment. For treatment, the cells were rinsed once and then maintained in low K+ medium (serum-free BME medium; referred to as LK), or in the case of control cultures, in high K+ medium (serum-free BME medium supplemented with 20 mM KCl; referred to as HK). For treatments, the chemical compounds (dissolved in dimethylsulfoxide) were added directly to LK medium at the time of the switch from HK at concentrations of 1, 5, or 25 μM. Viability was assessed 24 hours by 4′,6′-diamidino-2-phenylindole hydrochloride (DAPI) staining (see below). Each compound was tested in duplicate (at each of the concentrations) and the experiment repeated at least 3 times.
The viability status of neuronal cultures treated with HK, LK, or LK medium supplemented with various compounds was evaluated by phase contrast microscopy and quantified by staining cell nuclei with DAPI as previously described (Yalcin et al., 2003; Morrison et al., 2006; Majzadeh et al., 2007)). Briefly, the cells were fixed in 4% paraformaldehyde for 20 min at 4° C. After washing in phosphate buffered saline, diamidino-2-phenylindole hydrochloride (DAPI; 1 μg/ml in phosphate buffered saline) was added for 15 min at room-temperature and viewed under ultraviolet light (260 nm). Cells with condensed or fragmented nuclei were scored as dead. Viability has been expressed as percent of control cultures, which were switched to HK medium). Statistical analysis was performed using an unpaired, two-tailed Student's T test, compared to mean neuronal survival of control cultures receiving LK treatment.
When cultured cerebellar granule neurons are switched from HK to LK medium about 50% of the cells underwent apoptosis within 24 h (D'Mello et al., 1993). The inventors utilized this widely used and recognized model to test a total of 20 different 1,4-benzoxazine derivatives for their ability to protect against LK-induced neuronal death. Each compound was tested at 3 different doses—1 μM, 5 μM and 25 μM and viability quantified by DAPI-staining. The highest does was included to test for possible toxicity effects of the compounds. Key results were confirmed using TUNEL staining, another reliable assay of apoptosis (FIG. 1). As shown in Table 1 and FIG. 1, the present invention identifies several compounds with significant neuroprotective effect. Two of the most protective compounds are HSB-13 and HSB-22, both with Ar=3′,5′-dibromo-4′-hydroxyphenyl (FIG. 1). […] Protection with this compound is lower than that observed with HSB-13 and HSB-22 at the two lower doses. […] To examine whether a higher level of protection could be observed at doses lower than 1 μM, the analyses of these compounds was extended to doses of 0.5, 0.25, and 0.1 μM.
When cultured cerebellar granule neurons are switched to LK medium, about 50% of the cells undergo apoptosis within 24 h. In this study, a total of 20 different 1,4-benzoxazine derivatives of the structure shown in FIG. 1 were tested for their ability to protect against LK-induced death of cerebellar granule neurons. Each compound was tested at 3 different doses —1 μM, 5 μM and 25 μM. […]

[1] = Table 1, 1 μM in LK medium, 24 h, % of survival in control cultures in HK medium, LK alone 48%
[2] = Table 1, 5 μM in LK medium, 24 h, % of survival in control cultures in HK medium, LK alone 48%
[3] = Table 1, 25 μM in LK medium, 24 h, % of survival in control cultures in HK medium, LK alone 48%
[4] = Table 4, 1 μM in LK medium, % of survival in HK control cultures, LK alone 48.16±8.44%
[5] = Table 4, 5 μM in LK medium, % of survival in HK control cultures, LK alone 48.16±8.44%
[6] = Table 4, 25 μM in LK medium, % of survival in HK control cultures, LK alone 48.16±8.44%

| SMILES | % Survival [1] | % Survival [2] | % Survival [3] | % Survival [4] | % Survival [5] | % Survival [6] | neuroprotection against LK-induced neuronal death, in words | protection at doses lower than 1 μM compared with 1 μM | % Survival (Table 4, 25 μM in LK medium, % of survival in HK control cultures, LK alone 48.16±8.44%, listed as HSB-) | protection against LK-induced neuronal death (FIG. 1) (25 μM, 24 h, phase contrast microscopy, DAPI-staining, TUNEL-staining) |
| --- | --- | --- | --- | --- | --- | --- | --- | --- | --- | --- |
| O=C1Nc2ccccc2O/C1=C\c1cc(Br)cc(Br)c1 [ASK-1] | 75.3 ± 10.56% | 68.8 ± 12.99% | 69.1 ± 7.56% | 75.3 ± 10.56% | 68.8 ± 12.99% | 69.1 ± 7.56% | lack of neuroprotection |  |  |  |
| S=C1Nc2ccccc2OC1=Cc1cccs1 [ASK-8] |  | 60.8 ± 2.62% | 39.3 ± 7.78% | 73.3 ± 0.79 % | 60.8 ± 2.62% | 39.3 ± 7.78% | inactive | lower |  |  |
| CN1C(=S)C(=Cc2ccc[nH]2)Oc2ccccc21 [ASK-9] |  | 70.2 ± 5.32% | 65.1 ± 5.63% | 84.5% and 84.5 ± 3.30 % | 70.2 ± 5.32% | 65.1 ± 5.63% |  | lower |  |  |
| COc1ccc(OC)c(C=C2Oc3ccccc3NC2=S)c1 [ASK-11] | 73.8 ± 2.31% | 90.7 ± 14.50 % | 74.0 ± 3.59% | 73.8 ± 2.31% | 90.7% and 90.7 ± 14.50 % | 74.0 ± 3.59% | significant level of protection |  |  |  |
| CC(=O)Oc1c(Br)cc(/C=C2\Oc3ccc([N+](=O)[O-])cc3NC2=O)cc1Br [HSB-1] | 58.8 ± 10.31% |  | 63.5 ± 9.34% | 58.8 ± 10.31% |  | 63.5 ± 9.34% |  |  |  |  |
| CC(=O)Oc1c(Br)cc(/C=C2\Oc3ccc(Cl)cc3NC2=O)cc1Br [HSB-2] | 44.1 ± 23.42% | 62.3 ± 15.64% |  | 44.1 ± 23.42% | 62.3 ± 15.64% |  |  |  |  |  |
| CC(=O)Oc1c(Br)cc(/C=C2\Oc3ccc(C)cc3NC2=O)cc1Br [HSB-3] | 56.9 ± 11.54% | 59.6 ± 11.97% |  | 56.9 ± 11.54% | 59.6 ± 11.97% | 97.4 ± 12.98 % |  |  | ~97% |  |
| Cc1ccc2c(c1)NC(=O)/C(=C/c1ccsc1)O2 [HSB-4] |  | 60.3 ± 4.47% | 61.0 ± 3.58% | 65.0 ± 4.34% | 60.3 ± 4.47% | 61.0 ± 3.58% | inactive | lower |  |  |
| CC(=O)Oc1c(Br)cc(/C=C2\Oc3ccc(F)cc3NC2=O)cc1Br [HSB-5] | 65.9 ± 5.08% | 69.3 ± 9.75% |  | 65.9 ± 5.08% | 69.3 ± 9.75% | 95.6 ± 0.98 % |  |  |  | protective |
| COc1cc(/C=C2\Oc3ccc(I)cc3NC2=O)cc(OC)c1OC [HSB-6] | 61.9 ± 9.07% | 72.1 ± 19.33% | 59.4 ± 13.11% | 61.9 ± 9.07% | 72.1 ± 19.33% | 59.4 ± 13.11% | lack of neuroprotection |  |  |  |
| Cc1ccc2c(c1)NC(=O)/C(=C/c1ccccn1)O2 [HSB-7] | 59.4 ± 13.93% |  | 88.1 ± 2.44 % | 59.4 ± 13.93% | 59.8 ± 6.40% | 88.1 ± 2.44 % |  |  |  |  |
| CN(C)c1ccc(C=C2Oc3ccccc3NC2=O)cc1 [HSB-9] |  | 68.8 ± 13.54% | 63.3 ± 1.73% | 67.3 ± 16.43% | 68.8 ± 13.54% | 63.3 ± 1.73% |  | lower |  |  |
| O=C1Nc2ccccc2OC1=Cc1cccs1 [HSB-11] | 64.2 ± 12.18% | 68.8 ± 4.26% | 68.8 ± 4.49% | 64.2 ± 12.18% | 68.8 ± 4.26% | 68.8 ± 4.49% | inactive |  |  |  |
| O=C1Nc2ccccc2OC1=Cc1ccsc1 [HSB-12] | 76.8 ± 5.79 % | 76.2 ± 3.42 % | 81.4 ± 9.45 % | 76.8 ± 5.79 % | 76.2 ± 3.42 % | 81.4 ± 9.45 % | inactive |  |  |  |
| COc1cc(C=C2Oc3ccccc3NC2=O)cc(OC)c1OC [HSB-14] | 63.9 ± 2.26% | 70.0 ± 1.63% | 69.2 ± 5.30% | 63.9 ± 2.26% | 70.0 ± 1.63% | 69.2 ± 5.30% |  |  |  |  |
| COc1cc(/C=C2\Oc3ccc(C)cc3NC2=O)cc(OC)c1OC [HSB-15] | 60.7 ± 2.76% | 66.5 ± 9.26% | 63.9 ± 3.32% | 60.7 ± 2.76% | 66.5 ± 9.26% | 63.9 ± 3.32% |  |  |  |  |
| O=C1Nc2ccccc2OC1=Cc1c[nH]c2ccccc12 [HSB-20] | 52.2 ± 10.11% | 62.5 ± 3.14% | 48.3 ± 12.11% | 52.2 ± 10.11% | 62.5 ± 3.14% | 48.3 ± 12.11% |  |  |  |  |
